“And” between values parts separate entries of the source, which are not always exact repeats. Identical values can stand only once. Toxic doses and inconclusive results are not listed.

This passage reports T/C results from PubChem BioAssay AID330 (DTP/NCI, 2004).

The subject of this assay is P388 leukemia ip, CD2F1 mice, survival T/C. The assay is described as follows: NCI In Vivo Anticancer Drug Screen. Data for tumor model P388 Leukemia (intraperitoneal) in CD2F1 (CDF1) mice. The following applies: endpoint: median survival time, higher = longer survival. A digest of the protocol:
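Mice carrying the transplanted tumor received test compound or vehicle. Survival was recorded in each group, and the value is the treated-group measurement divided by that of the vehicle-treated control group.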

The mark [1] stands for this setting: dose: 50.0 mg/kg/injection, schedule: Q01DX009 (ip), vehicle: saline.
Where [2] appears, read: dose: 100.0 mg/kg/injection, schedule: Q01DX009 (ip), vehicle: saline with Tween-80.
Setting [3] is: dose: 100.0 mg/kg/injection, schedule: Q01DX009 (ip), vehicle: saline.
The mark [4] stands for this setting: dose: 100.0 mg/kg/injection, schedule: Q04DX003 (ip), vehicle: saline with Tween-80.
Setting [5] is: dose: 200.0 mg/kg/injection, schedule: Q04DX003 (ip), vehicle: saline with Tween-80.
[6] abbreviates: dose: 400.0 mg/kg/injection, schedule: Q04DX003 (ip), vehicle: saline with Tween-80.
Setting [7] is: dose: 50.0 mg/kg/injection, schedule: Q01DX005 (ip), vehicle: saline with Tween-80.
Setting [8] is: dose: 25.0 mg/kg/injection, schedule: Q01DX009 (ip), vehicle: saline.
The mark [9] stands for this setting: dose: 50.0 mg/kg/injection, schedule: Q01DX005 (ip), vehicle: Klucel (hydroxypropylcellulose) (HPC).
The mark [10] stands for this setting: dose: 100.0 mg/kg/injection, schedule: Q01DX005 (ip), vehicle: Klucel (hydroxypropylcellulose) (HPC).
Where [11] appears, read: dose: 50.0 mg/kg/injection, schedule: Q01DX005 (ip), vehicle: saline.
[12] abbreviates: dose: 100.0 mg/kg/injection, schedule: Q01DX005 (ip), vehicle: saline.
Where [13] appears, read: dose: 200.0 mg/kg/injection, schedule: Q01DX005 (ip), vehicle: saline.
Setting [14] is: dose: 100.0 mg/kg/injection, schedule: Q04DX002 (ip), vehicle: saline with Tween-80.
[15] abbreviates: dose: 200.0 mg/kg/injection, schedule: Q04DX002 (ip), vehicle: saline with Tween-80.
The mark [16] stands for this setting: dose: 400.0 mg/kg/injection, schedule: Q04DX002 (ip), vehicle: saline with Tween-80.

Turning to `c1ccc2n[nH]nc2c1`, the T/C runs as follows: under setting [1], 100 % of control; (dose: 100.0 mg/kg/injection, schedule: Q01DX001 (ip), vehicle: saline with Tween-80) 112 % of control; under setting [2], 104 % of control; under setting [3], 100 % of control; under setting [4], 95 % of control; (dose: 200.0 mg/kg/injection, schedule: Q01DX001 (ip), vehicle: saline with Tween-80) 105 % of control. The T/C is 109 % of control (dose: 200.0 mg/kg/injection, schedule: Q01DX009 (ip), vehicle: saline with Tween-80); 104 % of control (dose: 200.0 mg/kg/injection, schedule: Q01DX009 (ip), vehicle: saline); 109 % of control under setting [5].

As to `CN(Cc1cnc2nc(N)nc(N)c2n1)c1c(Cl)cc(C(=O)NC(CCC(=O)O)C(=O)O)cc1Cl` (stereo not given), the T/C is 158 % of control (dose: 25.0 mg/kg/injection, schedule: Q01DX005 (ip), vehicle: suspension in saline); 119 % of control (dose: 25.0 mg/kg/injection, schedule: Q01DX005 (iv), vehicle: suspension in saline); 169 % of control (dose: 50.0 mg/kg/injection, schedule: Q01DX005 (ip), vehicle: suspension in saline); 178 % of control (dose: 100.0 mg/kg/injection, schedule: Q01DX005 (ip), vehicle: suspension in saline); 165 % of control (dose: 100.0 mg/kg/injection, schedule: Q01DX005 (iv), vehicle: suspension in saline); 195 % of control under setting [4]. Moreover, the T/C by setting is: (dose: 200.0 mg/kg/injection, schedule: Q01DX005 (ip), vehicle: suspension in saline) 190 % of control; under setting [5], 222 % of control; (dose: 264.0 mg/kg/injection, schedule: Q04DX003 (ip), vehicle: saline with Tween-80) 245 % of control; under setting [6], 109 % of control and 240 % of control; (dose: 600.0 mg/kg/injection, schedule: Q04DX003 (ip), vehicle: saline with Tween-80) 259 % of control.

Turning to `CC(=O)OCn1cc2c3c(cccc31)C1CC(C)CN(C)C1C2` (stereo not given), the T/C by setting is: (dose: 12.5 mg/kg/injection, schedule: Q01DX005 (ip), vehicle: saline with Tween-80) 98 % of control; (dose: 25.0 mg/kg/injection, schedule: Q01DX005 (ip), vehicle: saline with Tween-80) 106 % of control; under setting [7], 100 % of control.

Consider `COc1ccccc1C1COC(c2ccccc2)(c2ccccc2)S1` (stereo not given), for which the T/C runs as follows: under setting [8], 108 % of control; under setting [1], 108 % of control; under setting [3], 108 % of control.

With `CC(=O)Nc1ccc(S(=O)(=O)NC(C)=O)cc1`, the T/C was 100 % of control (dose: 12.5 mg/kg/injection, schedule: Q01DX009 (ip), vehicle: saline); 98 % of control under setting [8]; 108 % of control under setting [1]; 100 % of control under setting [3].

Regarding `[O-][N+](O)=C1c2ccccc2-c2ccccc21`, the T/C was 100 % of control (dose: 100.0 mg/kg/injection, schedule: Q04DX003 (ip), vehicle: saline); 103 % of control (dose: 200.0 mg/kg/injection, schedule: Q04DX003 (ip), vehicle: saline); 102 % of control (dose: 400.0 mg/kg/injection, schedule: Q04DX003 (ip), vehicle: saline).

As to `CC(=O)N1CCN(c2ccc(OCC3COC(Cn4ccnc4)(c4ccc(Cl)cc4Cl)O3)cc2)CC1` (stereo not given), the T/C reads like this: (dose: 50.0 mg/kg/injection, schedule: Q01DX009 (ip), vehicle: saline with Tween-80) 88 % of control; under setting [2], 87 % of control.

On to `Cc1cc(=O)[nH]c2cc(O)ccc12`, for which the T/C (dose: 25.0 mg/kg/injection, schedule: Q01DX005 (ip), vehicle: Klucel (hydroxypropylcellulose) (HPC)) was 100 % of control; the T/C under setting [9] was 93 % of control; the T/C under setting [10] was 98 % of control.

In the case of `CC=C1CN(C)C2Cc3c([nH]c4ccccc34)C(=O)CC1C2C(=O)OC` (stereo not given), the T/C is 107 % of control (dose: 7.5 mg/kg/injection, schedule: Q01DX009 (ip), vehicle: saline + alcohol); 116 % of control (dose: 15.0 mg/kg/injection, schedule: Q01DX009 (ip), vehicle: saline + alcohol); 106 % of control (dose: 30.0 mg/kg/injection, schedule: Q01DX009 (ip), vehicle: saline + alcohol).

As to `CCn1cnc2c(SC3CCCC3)ncnc21`, the T/C (dose: 100.0 mg/kg/injection, schedule: Q01DX009 (ip), vehicle: saline sonified) was 105 % of control and the T/C (dose: 200.0 mg/kg/injection, schedule: Q01DX009 (ip), vehicle: saline sonified) was 110 % of control.

For the compound `Nc1ccc(C(=O)Nc2ccc3cc(S(=O)(=O)O)cc(S(=O)(=O)O)c3c2)cc1`, the T/C is 103 % of control under setting [11], 99 % of control under setting [12] and 100 % of control under setting [13].

As to `O=c1[nH]c(=O)n(C2CCCS2)cc1F` (stereo not given), the T/C (dose: 37.5 mg/kg/injection, schedule: Q01DX009 (ip), vehicle: suspension in saline) was 100 % of control; the T/C (dose: 75.0 mg/kg/injection, schedule: Q01DX009 (ip), vehicle: suspension in saline) is 100 % of control; the T/C (dose: 150.0 mg/kg/injection, schedule: Q01DX009 (ip), vehicle: suspension in saline) was 97 % of control.

For `CCOC(=O)/C(C#N)=C/c1ccc(-c2cc(C(F)(F)F)cc(C(F)(F)F)c2)o1`, the T/C is, setting by setting: under setting [7], 92 % of control; (dose: 100.0 mg/kg/injection, schedule: Q01DX005 (ip), vehicle: saline with Tween-80) 90 % of control; (dose: 200.0 mg/kg/injection, schedule: Q01DX005 (ip), vehicle: saline with Tween-80) 88 % of control.

Regarding `O=c1c(CS(=O)(=O)c2ccccc2)c(-c2ccccc2)c1=O`, the T/C is 104 % of control under setting [14], 104 % of control under setting [15] and 97 % of control under setting [16].

Consider `Cc1cccc(C(=O)O)c1C`, for which the T/C by setting is: (dose: 50.0 mg/kg/injection, schedule: Q04DX003 (ip), vehicle: gum acacia) 100 % of control; (dose: 100.0 mg/kg/injection, schedule: Q04DX003 (ip), vehicle: gum acacia) 97 % of control; (dose: 200.0 mg/kg/injection, schedule: Q04DX003 (ip), vehicle: gum acacia) 93 % of control; (dose: 400.0 mg/kg/injection, schedule: Q04DX003 (ip), vehicle: gum acacia) 98 % of control.

With `C=CCC(CC1CC2CCCCN2O1)OCc1ccccc1` (stereo not given), the T/C was 101 % of control under setting [4], 105 % of control under setting [5] and 104 % of control under setting [6].

Turning to `CC(=NCc1ccccc1)NOCc1ccccc1`, the T/C reads like this: under setting [11], 114 % of control; under setting [12], 108 % of control; under setting [13], 101 % of control.

Consider `C=C1CC(C2OCOC3COCOC32)OC1=O` (stereo not given), for which the T/C runs as follows: (dose: 60.0 mg/kg/injection, schedule: Q01DX005 (ip), vehicle: Klucel (hydroxypropylcellulose) (HPC)) 104 % of control; (dose: 120.0 mg/kg/injection, schedule: Q01DX005 (ip), vehicle: Klucel (hydroxypropylcellulose) (HPC)) 111 % of control.

Regarding `ClCC(CCl)(CCl)CCl`, the T/C was 105 % of control (dose: 50.0 mg/kg/injection, schedule: Q04DX003 (ip), vehicle: saline with Tween-80) and 98 % of control under setting [4].

Take `CCCCCCCC(=O)NC(CCSC)C(=O)O` (stereo not given): the T/C by setting is: under setting [9], 107 % of control; under setting [10], 88 % of control; (dose: 200.0 mg/kg/injection, schedule: Q01DX005 (ip), vehicle: Klucel (hydroxypropylcellulose) (HPC)) 104 % of control.

As for `O=C1CC2CCC1CC2c1cnc[nH]1` (stereo not given), the T/C (dose: 25.0 mg/kg/injection, schedule: Q04DX002 (ip), vehicle: saline with Tween-80) is 93 % of control; the T/C (dose: 50.0 mg/kg/injection, schedule: Q04DX002 (ip), vehicle: saline with Tween-80) is 100 % of control; the T/C under setting [14] was 102 % of control.

With `O=C(Oc1ccccc1)C1CC2(C1)CC(C(=O)Oc1ccccc1)C2` (stereo not given), the T/C was 101 % of control under setting [14], 99 % of control under setting [15] and 99 % of control under setting [16].

Consider `O=C(O)CC(=O)O.[Cu+2].[NH-]C1CCCC2CCC[N-]C12` (stereo not given), for which the T/C is 93 % of control (dose: 5.0 mg/kg/injection, schedule: Q04DX002 (ip), vehicle: saline) and 108 % of control (dose: 10.0 mg/kg/injection, schedule: Q04DX002 (ip), vehicle: saline).
